Columns and labels:
[1] = system: hot flashes; assay: alleviation of hot flashes in a postmenopausal breast cancer patient treated with tamoxifen citrate; assay type: in vivo, human; conditions: postmenopausal patient on tamoxifen citrate (20 mg tamoxifen free base)
Description: A postmenopausal patient is being treated in the adjuvant setting for breast cancer with the SERM tamoxifen citrate (dosage of 20 mg tamoxifen free base). They are experiencing hot flashes as a result of their treatment.

[2] = system: rat uterus; conditions: cited from earlier work; for estrogenic stimulation on the rat uterus: compound alone

Row | SMILES | alleviation of hot flashes ([1]; 20 mg once daily) | alleviation of hot flashes ([1]; dosage adjusted to 50 mg) | estrogenic stimulation on the rat uterus [2] | antagonism of the estrogenic effect of estradiol on the uterus ([2]; with estradiol)
1 | CCNCCc1ccc(CN(CC)c2cc(OC)ccc2[C@@H]2CCc3cc(O)ccc3C2)cc1 [compound of formula I] | partial alleviation of their symptoms | almost complete alleviation of their hot flushes | no estrogenic stimulation | could antagonize the estrogenic effect of estradiol on the uterus and bring it back to control levels
2 | O=C(c1ccc(OCCN2CCCCC2)cc1)c1c(-c2ccc(O)cc2)sc2cc(O)ccc12 [raloxifene, reference compound] | – | – | did stimulate the uterus | –
3 | CC/C(=C(\c1ccccc1)c1ccc(OCCN(C)C)cc1)c1ccccc1 [tamoxifen, reference compound] | – | – | did stimulate the uterus | –

Reference: patent publication US20110124617A1, “Combination Therapy for BreastCancer Comprising an Antiestrogenic Agent” (priority 2008, published 2011)
